15 compounds from PubChem BioAssay (NCI) can be followed below.

Common to all, as to assay: DTP human tumour cell line panel, 48 h
Test [1] has as its system HCT-15 colon.
The test system of test [2] is SF-268 CNS.
The subject of test [3] is UACC-62 melanoma.
Test [4] deals with TK-10 renal.
The subject of test [5] is HCC-2998 colon.
Test [6] relates to RXF 393 renal.
In test [7] the test system is MCF7 breast.
Test [8] has as its system BT-549 breast.
In test [9] the test system is OVCAR-8 ovarian.
The test system of test [10] is SF-539 CNS.

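Five concentrations, 48 hours, 96-well plates. GI50 = concentration required for 50% inhibition of growth. TGI marks complete inhibition of growth.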

The term GI50 denotes the concentration at which growth is held to half of that of the control. For orientation: TGI means the concentration at which net growth stops. A high value points to lower sensitivity of the cells.

On to `COC1C(CO)OC(n2c3ccccc3c3c4c(c5c6ccccc6[nH]c5c32)C(=O)NC4=O)C(O)C1OC(=O)C(N)CCCCN` (stereo not given), for which the GI50 in test [1] is 8.98 µM; in test [2], 0.379 µM; in test [3], 0.283 µM; in [4], 1.81 µM; in test [5] it was 1.57 µM; in test [6], 2.44 µM. Moreover, the GI50 in [7] is 1.13 µM; in test [8] it was 0.807 µM; in test [9], 0.49 µM; in test [10], 0.165 µM. Also, the TGI in test [1] is over 39.5 µM; in test [2], 14.5 µM; in test [3], 1.3 µM; in test [4] it was 14.6 µM; in test [5] it was 17.8 µM; in test [6], 14.8 µM. The concentration for total growth inhibition (TGI) was over 50 µM in test [7], 5.62 µM in test [8], over 50 µM in test [9] and 0.821 µM in [10].
As to `CC(C)n1nc(C#Cc2cccc(NC(=O)c3cccc(C(F)(F)F)c3)c2)c2c(N)ncnc21`, the GI50 is 2.41 µM in test [1]; 2.15 µM in test [2]; 0.19 µM in test [3]; 1.78 µM in test [4]; 2.36 µM in [5]; 1.02 µM in test [6]. In addition, the GI50 in test [7] was 7.5 µM; in [8], 2.46 µM; in [9], 3.15 µM; in test [10] it was 0.445 µM. Moreover, the TGI was over 100 µM in test [1]; 10.4 µM in test [2]; 1.24 µM in test [3]; 4.45 µM in [4]; 75.7 µM in test [5]; 2.49 µM in [6]. Besides, the concentration for total growth inhibition (TGI) in test [7] was over 100 µM; in [8], 47.7 µM; in [9] it was over 100 µM; in test [10] it was 2.33 µM.
Regarding `CCc1nc(N)nc(N)c1-c1ccc([N+](=O)[O-])c(Cl)c1`, the TGI in test [1], in test [2], in [3], in test [4], in [5] and in test [6] was over 100 µM throughout. Moreover, the TGI in test [7] is over 100 µM; in [8], over 100 µM; in test [9], over 100 µM; in test [10], over 94.4 µM.
As to `C[C@H](NC(=O)CCC(F)(F)F)C(=O)N[C@@H]1C(=O)N(CCO)c2ncccc2-c2ccccc21`, the GI50 in test [1], in test [2], in test [3], in [4], in test [5] and in [6] was over 100 µM each time. The GI50 in test [7], in [8], in test [9] and in [10] was over 100 µM each time. In addition, the TGI in test [1], in [2], in test [3], in [4], in test [5] and in test [6] was over 100 µM in each case. Moreover, the TGI in test [7], in test [8], in test [9] and in test [10] was over 100 µM each time.
As for `CCNC(=O)Oc1ccc(/C(=C(\C)c2ccc(Cl)cc2)c2ccc(OCCN3CCCCC3)cc2)cc1`, the GI50 in test [1] was 2.49 µM; in test [2], 6.04 µM; in test [3], 2.5 µM; in test [4], 19.5 µM; in test [5], 3.53 µM; in test [6] it was 2.19 µM. For the same compound, the GI50 in [7] is 0.484 µM; in [8], 4.27 µM; in test [9] it was 9.31 µM; in test [10] it was 1.81 µM. Further, the TGI worked out at 7.72 µM in test [1]; 20.9 µM in [2]; 6.01 µM in test [3]; 34.6 µM in test [4]; 13.4 µM in [5]; 8.77 µM in [6]. In addition, the total growth inhibition concentration (TGI) in test [7] is 8.06 µM; in test [8], 16.6 µM; in test [9], 26 µM; in [10], 3.59 µM.
On to `CN(C)c1ccc(Sc2ccc3nc(N)nc(N)c3c2)cc1`, for which the GI50 was 0.429 µM in test [1]; 0.604 µM in [2]; 0.519 µM in test [3]; 4.11 µM in test [4]; 0.848 µM in test [5]; 1.06 µM in test [6]. Further, the GI50 was 1.14 µM in test [7], 3.28 µM in [8], 0.589 µM in test [9] and 0.985 µM in [10]. Also, the TGI in [1] worked out at 14.2 µM; in [2], 14.3 µM; in [3] it was 5.78 µM; in test [4] it was 15.5 µM; in test [5] it was 4.84 µM; in test [6] it was 11.3 µM. Moreover, the TGI in [7] came out at 13.4 µM; in test [8], 19.5 µM; in [9] it was 9.88 µM; in [10], 10.3 µM.
Consider `O=c1[nH]c2cc(O)ccc2n2cc3c(F)cccc3c12`, for which the GI50 was 0.536 µM in [1]; 2.57 µM in test [2]; 1.29 µM in test [3]; over 100 µM in test [4]; over 24.3 µM in test [5]; 0.969 µM in test [6]. For the same compound, the GI50 in test [7] was 0.936 µM; in test [8], over 100 µM; in [9] it was 3.85 µM; in test [10], 1.3 µM. Further, the concentration for total growth inhibition (TGI) in [1], in test [2], in test [3], in test [4], in test [5] and in test [6] was over 100 µM in each case. Besides, the TGI in [7], in test [8], in test [9] and in [10] was over 100 µM throughout.
With `Cn1c(COC(=O)NCCN2CCOCC2)nc2c(N3CCOCC3)nc(-c3ccccc3)nc21`, the GI50 in test [1] is 0.46 µM; in test [2] it was 1.38 µM; in test [3] it was 1.36 µM; in [4] it was 1.48 µM; in test [5] it was 1.62 µM; in [6], 0.797 µM. Besides, the GI50 in [7] was 0.47 µM; in test [8], 1.08 µM; in [9], 1.3 µM; in test [10], 1.35 µM. Moreover, the TGI in [1] was 1.87 µM; in test [2], 2.95 µM; in test [3], 2.81 µM; in test [4], 2.88 µM; in test [5], 3.41 µM; in [6], 2.22 µM. Besides, the TGI in [7] is 2.18 µM; in test [8] it was 2.71 µM; in [9], 3.4 µM; in test [10], 2.68 µM.
`COC(=O)Nc1nc2ccc(Sc3ccc(NC(=O)Nc4cc(C(F)(F)F)ccc4F)cc3)cc2[nH]1`: the GI50 in test [1] was 1.62 µM; in test [2] it was 3.89 µM; in [3], 1.85 µM; in [4], 5.11 µM; in test [5], 3.96 µM; in test [6], 3.29 µM. Further, the GI50 is 0.988 µM in test [7], 7.86 µM in test [8], 4.23 µM in [9] and 3.23 µM in [10]. Besides, the total growth inhibition concentration (TGI) in test [1] was found to be 8.19 µM; in [2], 9.6 µM; in [3], 8.38 µM; in [4], 11.3 µM; in [5] it was 13.1 µM; in [6], 8.05 µM. The concentration for total growth inhibition (TGI) in test [7] is 5.33 µM; in [8], 24.2 µM; in test [9], 11.6 µM; in [10], 7.98 µM.
Take `CCCCCCCCCCCCNC(=O)[C@H]1CSC(c2ccc(OC)c(F)c2)N1` (stereo not given in full): the GI50 in test [1] is 1.78 µM; in test [2], 0.216 µM; in test [3], 1.45 µM; in test [4], 1.95 µM; in [5], 1.75 µM; in [6] it was 0.867 µM. The GI50 was 1.55 µM in [7], 0.37 µM in [8], 1.18 µM in [9] and 0.785 µM in test [10]. Also, the total growth inhibition concentration (TGI) stood at 3.39 µM in [1]; 0.455 µM in [2]; 2.83 µM in test [3]; 3.48 µM in [4]; 3.33 µM in test [5]; 2.2 µM in [6]. The total growth inhibition concentration (TGI) in test [7] was 3.31 µM; in test [8], 0.912 µM; in [9] it was 4.13 µM; in test [10], 2.14 µM.
As for `CN1CCN(C(=S)SCN2C(=O)c3ccccc3S2(=O)=O)CC1`, the GI50 was 21.3 µM in [1]; 37.4 µM in test [2]; 18.8 µM in test [3]; 43.4 µM in test [4]; 30.9 µM in test [5]; 39.5 µM in test [6]. Besides, the GI50 in [7] was 8.29 µM; in test [8] it was over 100 µM; in test [9], 46.3 µM; in test [10], 36.8 µM. The TGI in test [1] is 99.1 µM; in test [2] it was over 100 µM; in [3] it was 54.1 µM; in test [4], over 100 µM; in test [5] it was 85.3 µM; in test [6], over 100 µM. Further, the TGI in test [7], in test [8], in test [9] and in [10] was over 100 µM each time.
In the case of `C=C(CC1(CC(=C)c2ccc(C(=O)O)cc2)C(=O)N(C)C(=O)N(C)C1=O)c1ccc(C(=O)O)cc1`, the GI50 in test [1] was over 100 µM; in [2], 70.4 µM; in test [3], 42.7 µM; in test [4], 16 µM; in test [5], 61.2 µM; in [6] it was over 100 µM. The GI50 in test [7] is 73.9 µM; in [8] it was over 100 µM; in test [9], 62.8 µM; in test [10] it was over 100 µM. Further, the TGI in test [1], in test [2], in test [3], in [4], in [5] and in test [6] was over 100 µM each time. The concentration for total growth inhibition (TGI) in [7], in [8], in [9] and in [10] was over 100 µM each time.
In the case of `OCCCCC#Cc1ccccc1C#Cc1cnccn1`, the GI50 in [1] was 33.3 µM; in [2], 32.4 µM; in test [3], 21.2 µM; in test [4] it was 47.7 µM; in test [5] it was 33 µM; in test [6] it was 15 µM. In addition, the GI50 in test [7] was 44.6 µM; in [8], 17.4 µM; in test [9] it was 33 µM; in test [10], 53.8 µM. Moreover, the total growth inhibition concentration (TGI) in test [1] is over 100 µM; in test [2] it was over 100 µM; in test [3] it was over 100 µM; in test [4], over 100 µM; in test [5] it was over 100 µM; in test [6] it was 54.2 µM. Also, the TGI in [7] was over 100 µM; in test [8], 55.2 µM; in [9] it was over 100 µM; in test [10] it was over 100 µM.
`O=[N+]([O-])c1cccc(-c2ncc(-c3ccc(Cl)cc3Cl)[nH]2)c1`: the GI50 in [1] was 2.39 µM; in [2], 2.92 µM; in [3], 7.63 µM; in test [4] it was 3.3 µM; in test [5], 7.36 µM; in test [6] it was 2.25 µM. The GI50 is 1.14 µM in test [7], 3.05 µM in test [8], 22.4 µM in test [9] and 15.4 µM in test [10]. Moreover, the concentration for total growth inhibition (TGI) in test [1] came to 6.82 µM; in test [2], 9.57 µM; in test [3] it was 20.6 µM; in test [4] it was 13.1 µM; in test [5], 16.4 µM; in test [6], 6 µM. For the same compound, the concentration for total growth inhibition (TGI) worked out at 3.57 µM in test [7], 8.07 µM in [8], 53.3 µM in test [9] and 29.3 µM in [10].
On to `C=C(C)[C@]12CC(C)C34OC(/C=C\C=C\CCCCCCCCC)(O[C@@H]1[C@@H]3[C@@H]1O[C@]1(CO)[C@@H](O)[C@]1(O)C(=O)C(C)=C[C@@H]41)O2` (stereo not given in full), for which the TGI turned out to be 25.4 µM in test [1]; 28.5 µM in test [2]; 24 µM in test [3]; 19.1 µM in [4]; 28.6 µM in [6]; 23.4 µM in [7]. For the same compound, the concentration for total growth inhibition (TGI) in [8] was 18.5 µM; in test [9] it was 31.8 µM; in [10], 17.2 µM. Moreover, in [5], the GI50 is under 0.0001 µM.
